Test: Solid state stability testing on storage
Format: physicochemical
Procedure: Samples (20 and 80 mg each) of the Form A material produced by the process of Example 7 were stored at 25° C. and 60% relative humidity and at 40° C. and 75% relative humidity in open containers and in closed containers.
X-ray powder diffraction patterns were obtained with a Shimadzu 6000 diffractometer using Cu Kα (40.0 kV, 35.0 mA) radiation. The analysis was performed with the goniometer running in continuous-scan mode of 2°/min with a step size of 0.020 over a range of 4 to 45°. Samples were prepared on glass specimen holders as a thin layer of powdered material. The instruments was calibrated to a silicon metal standard.
Differential scanning calorimetry traces were obtained with a TA instruments model DSCQ10. Samples were placed in sealed aluminum pans for analysis with an empty pan serving as the reference. Samples were equilibrated at 30° C. and heated at 5° C. per minute to a temperature of 300° C. The instrument was calibrated with an indium standard.
Thermogravimetric analysis was conducted using a TA instruments model Q50. Samples were weighed in aluminum pans and heated from 30° C. to 300° C. at a rate of 5° C./min.
HPLC analysis was performed using reverse phase conditions and a gradient of 2% to 90% acetonitrile over 6 minutes. Solvents contain 0.1% trifluoroacetic acid. Column: Zorbax 2.1×50 mm, flow rate 0.5 mL/min, observed wavelength 214 nm.

[1] = solid stored four weeks at 25° C. and 60% relative humidity in closed containers

COc1ccc(Nc2ccc(CCNC[C@H](O)c3ccc(O)c4[nH]c(=O)ccc34)cc2)cc1-c1ccccc1.Cl [Form A, N-{2-[4-(3-phenyl-4-methoxyphenyl)aminophenyl]ethyl}-(R)-2-hydroxy-2-(8-hydroxy-2(1H)-quinolinon-5-yl)ethylamine monohydrochloride water/isopropanol solvate]
stability upon storage (HPLC degradant peaks; DSC, TGA and XRPD traces) (four weeks at 25° C. and 60% humidity in closed containers): stable | changes in analysis by DSC and TGA [1]: no detectable differences | chemical degradation, analysis by HPLC [1]: no detectable chemical degradation | solvent content on storage in open containers (solid stored in open containers over four weeks (25° C./60% RH and 40° C./75% RH)): loss of isopropanol

From patent publication US7060712B2, “Crystalline form of aryl aniline β2 adrenergic receptor agonist” (Theravance, Inc., priority 2003, dated 2006)
